# Experiments:
# [1] = Changes in sensitivity (absorbance, fluorescence intensity) at varying pHs; type: physicochemical; details: about 1 μM in 78 mM phosphate buffer, neutral to weakly acidic, approximately pH 4; Ex. 565 nm-Em. 580 nm
# Procedure: DAR-1T was dissolved in purified water to prepare a solution of a concentration of 100 μM. The solution was added to phosphate buffer (78 mM) adjusted to each pH at a final concentration of about 1 μM, and absorbance and fluorescence intensity were measured. The measurement wavelengths of fluorescence were set to Ex. 565 nm-Em. 580 nm. In the figure, (a) represent the results of the absorptiometric measurement and (b) represents the results of fluorescence intensity measurement.
# [2] = Fluorescence maximum wavelengths; type: physicochemical
# Description: Maximum wavelengths: Ex. 565 nm-Em. 580 nm
# [3] = buffer, pH 7.4; cited from earlier work
# [4] = test system: Vascular smooth muscle cells derived from rat arota; experiment: Imaging of nitric oxide produced by vascular smooth muscle cells; type: cell-based
# Procedure: The normal lines represent fluorescence intensity of each cell and bold lines represent the averages thereof.
# Vascular smooth muscle cells derived from rat arota were cultured in a glass bottom dish, and stimulated with LPS (12.5 μg/ml), […] (150 U/ml), IL-1β (25 U/ml) and TNF-α (30 ng/ml) to induce a nitric oxide synthase. The culture was continued for about 12 hours, and then the culture medium was changed to Krebs-Ringer-phosphate buffer (KRP) in which DAR-1EE was dissolved (Example 2, 10 μM) to allow uptake of […] by the cells. The cells were cultured at 37° C. for 1 hour, and washed, and the culture medium was changed to KRP in which L-Arg or L-NMMA was dissolved. Changes in intracellular fluorescence with time was observed under a fluorescence microscope (Ex. 530-560 nm, Em. 550-610 nm, magnification: ×20).
structure (smiles),measurement,setting,value
"CCN(CC)c1ccc2c(-c3ccc4nn[nH]c4c3C(=O)O)c3ccc(=[N+](CC)CC)cc-3oc2c1 [DAR-1T, [9-(7-carboxybenzotriazol-6-yl)-6-diethylamino-3H-xanthen-3-ylidene]diethyliminium]",fluorescence intensity as a function of pH,[1],no changes in fluorescence intensity
same,Maximum wavelength Em.,[2]; emission,580 nm
same,Maximum wavelength Ex.,[2]; excitation,565 nm
CCNCCN(CC)N(O)N=O [NOC-12],half life,[3],5.45 h
"CCOC(=O)c1c(-c2c3ccc(=[N+](CC)CC)cc-3oc3cc(N(CC)CC)ccc23)ccc(N)c1N [DAR-1EE, [9-(3,4-diamino-2-ethoxycarbonylphenyl)-6-diethylamino-3H-xanthen-3-ylidene]diethyliminium]","intracellular fluorescence intensity with time, nitric oxide producing cells","[4]; 10 μM DAR-1EE loaded 1 hour at 37° C., stimulated cells (LPS, INF, IL-1β, TNF-α), 1 mM L-Arg",Fluorescence intensity increased with time
same,"intracellular fluorescence intensity with time, cells producing no nitric oxide (non-stimulated)","[4]; 10 μM DAR-1EE loaded, non-stimulated cells, 1 mM L-Arg",substantially no change in fluorescence intensity
same,"intracellular fluorescence intensity with time, cells added with the NOS inhibitor","[4]; 10 μM DAR-1EE loaded, stimulated cells, 1 mM L-Arg+10 mM NMMA",substantially no change in fluorescence intensity
same,cellular uptake and intracellular hydrolysis,"[4]; 10 μM in KRP, 37° C., 1 hour",uptaken into the cells and hydrolyzed

# Source: US6469051B2, “Diaminorhodamine derivative” (priority 1997, dated 2002)
